Test results reported in US6440459B1, “Paroxetine maleate polymorph and pharmaceutical compositions containing it” (Medichem, S.A., priority 1998, dated 2002).

Experiment: Accelerated stability tests (storage at 40° C. and 75% Relative Humidity, HPLC analysis)
Format: physicochemical
Settings: for Degradation in accelerated stability tests: high temperature and humidity conditions, periods of up to six months (summary statement); for Stability (degradation by HPLC) at the end of one month of storage / Stability (degradation by HPLC) at the end of six months of storage: solid in two-ply polythene bags, 40° C., 75% Relative Humidity, HPLC vs time of packaging
Procedure: Accelerated Stability Tests Samples of paroxetine maleate Form A and Form B were packaged in two-ply polythene bags and stored at 40° C. and 75% Relative Humidity. The samples were analyzed at the time of packaging by HPLC and were analyzed with the same technique at the end of one month and six months of storage.

| SMILES | Degradation in accelerated stability tests | Stability (degradation by HPLC) at the end of one month of storage | Stability (degradation by HPLC) at the end of six months of storage |
| --- | --- | --- | --- |
| Fc1ccc([C@@H]2CCNC[C@H]2COc2ccc3c(c2)OCO3)cc1.O=C(O)/C=C\C(=O)O [Form A, (3S-trans)-3-[(1,3-benzodioxol-5-yloxy)methyl]-4-(4-fluorophenyl)piperidine acid maleate] | notable degradation | clear signs of degradation | high degree of degradation |
| Fc1ccc([C@@H]2CCNC[C@H]2COc2ccc3c(c2)OCO3)cc1.O=C(O)/C=C\C(=O)O [Form B, (3S-trans)-3-[(1,3-benzodioxol-5-yloxy)methyl]-4-(4-fluorophenyl)piperidine acid maleate] | absence of significant degradation | substantially unaltered | substantially unaltered |
